This note sets out measurements from ChEMBL document CHEMBL4308916, “Leucoflavonine, a new bioactive racemic flavoalkaloid from the leaves of Leucosceptrum canum” (Bioorg Med Chem, 2019).

Active and inactive are the calls of the source. No cut-off for these calls is given here.

Data set [1] relates to RAW264.7. Description: Anti-inflammatory activity in mouse RAW264.7 cells assessed as reduction in LPS-induced TNF-alpha production after 48 hrs by ELISA. As to conditions: RAW264.7, 48 h. In kind it is functional, cell-based.
The subject of data set [2] is RAW264.7. Description: Anti-inflammatory activity in mouse RAW264.7 cells assessed as reduction in LPS-induced IL-6 production after 48 hrs by ELISA. Type of data set: functional, cell-based. As to conditions: RAW264.7, 48 h.
The subject of data set [3] is NCI-H1975. Description: cells. The following applies: Homo sapiens, NCI-H1975, 72 h.
Description: Cytotoxicity against human NCI-H1975 cells after 72 hrs by MTT assay
Data set [4] deals with Jurkat. Description: cells. The following applies: Homo sapiens, 48 h.
Description: Immunosuppressive activity in human Jurkat cells assessed as reduction in PHA + PMA-induced IL-2 production after 48 hrs by ELISA
Data set [5] has as its system HepG2. Description: cells. The following applies: Homo sapiens, HepG2, 72 h.
Description: Cytotoxicity against human HepG2 cells after 72 hrs by MTT assay
Data set [6] has as its system PC-9. Put plainly: Cytotoxicity against human PC9 cells after 72 hrs by MTT assay. Type of data set: cell-based. The following applies: PC-9, 72 h.
Data set [7] concerns the target T1, Acetylcholinesterase (Homo sapiens, UniProt P22303). Put plainly: Inhibition of AChE (unknown origin) using acetylthiocholine iodide as substrate preincubated for 20 mins followed by substrate addition and measured every 30 secs for 1 hr by Ellman's assay.
Data set [8] deals with NCI-H1975. Description: Cytotoxicity against human NCI-H1975 cells at 80 uM after 72 hrs by MTT assay. As to conditions: nci-h1975, 72 h. In kind it is cell-based.
Data set [9] relates to HepG2. Description: Cytotoxicity against human HepG2 cells at 80 uM after 72 hrs by MTT assay. In kind it is cell-based. As to conditions: hepg2, 72 h.
Data set [10] relates to PC-9. Description: Cytotoxicity against human PC9 cells at 80 uM after 72 hrs by MTT assay. In kind it is cell-based. As to conditions: pc-9, 72 h.
Data set [11] relates to Jurkat. Put plainly: Immunosuppressive activity in human Jurkat cells assessed as reduction in PHA + PMA-induced IL-2 production at 20 uM after 48 hrs by ELISA. Type of data set: functional, cell-based.
Data set [12] deals with T1, Acetylcholinesterase. Put plainly: Inhibition of AChE (unknown origin) at 250 uM using acetylthiocholine iodide as substrate preincubated for 20 mins followed by substrate addition and measured every 30 secs for 1 hr by Ellman's assay.

T1 sequence (P22303 whole entry): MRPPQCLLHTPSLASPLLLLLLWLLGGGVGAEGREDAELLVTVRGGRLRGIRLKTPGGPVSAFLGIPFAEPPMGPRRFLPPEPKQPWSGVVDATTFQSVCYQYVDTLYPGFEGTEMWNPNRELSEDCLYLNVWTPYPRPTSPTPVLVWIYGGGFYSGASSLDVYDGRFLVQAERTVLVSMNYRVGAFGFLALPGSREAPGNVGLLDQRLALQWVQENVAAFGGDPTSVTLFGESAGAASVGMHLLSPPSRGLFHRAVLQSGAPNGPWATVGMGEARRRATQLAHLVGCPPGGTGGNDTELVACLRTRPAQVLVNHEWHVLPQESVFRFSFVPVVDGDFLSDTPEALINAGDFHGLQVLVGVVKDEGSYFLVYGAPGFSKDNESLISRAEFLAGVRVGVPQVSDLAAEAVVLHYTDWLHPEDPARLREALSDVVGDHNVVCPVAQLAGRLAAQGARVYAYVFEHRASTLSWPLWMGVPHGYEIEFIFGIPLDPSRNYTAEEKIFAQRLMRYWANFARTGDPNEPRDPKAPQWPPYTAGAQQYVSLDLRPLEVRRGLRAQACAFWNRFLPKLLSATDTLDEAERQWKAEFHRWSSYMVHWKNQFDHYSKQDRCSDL

Consider `C[C@@H]1C[C@H]2[C@@H]3CCC4=CC(=O)C=C[C@]4(C)[C@@]3(F)[C@@H](O)C[C@]2(C)[C@@]1(O)C(=O)CO` [DEXAMETHASONE], for which the IC50 with RAW264.7 [1] is 1.2 µM; in the data set with RAW264.7 [2] it was 9.4 µM.

Take `COc1ccc(-c2cc(=O)c3cc(OC)c(O)c([C@H]4CCC(=O)N4)c3o2)cc1`: the IC50 in the data set on RAW264.7 [1] is more than 20 µM; in the data set with NCI-H1975 [3] it was more than 80 µM; in the data set with RAW264.7 [2] it was more than 20 µM; with Jurkat [4] it was 16.5 µM; with HepG2 [5], 52.9 µM; in the data set on PC-9 [6] it was more than 80 µM. Besides, on Acetylcholinesterase [7], it took 18.3 µM to reach half-maximal inhibition (IC50).

With `COc1ccc(-c2cc(=O)c3cc(OC)c(O)c([C@@H]4CCC(=O)N4)c3o2)cc1`, the IC50 with RAW264.7 [1] was more than 20 µM; with NCI-H1975 [3], more than 80 µM; in the data set on RAW264.7 [2], more than 20 µM; with Jurkat [4] it was more than 20 µM; with HepG2 [5], more than 80 µM; in the data set with PC-9 [6], more than 80 µM. This compound returned a half-inhibitory concentration (IC50) against Acetylcholinesterase [7] of 68 µM. The Activity result in the data set with NCI-H1975 [8], in the data set on HepG2 [9] and in the data set on PC-9 [10] was “Non-Toxic” in each case.

Consider `COc1ccc(-c2cc(=O)c3c(O)c(OC)c(O)cc3o2)cc1` [PECTOLINARIGENIN], for which the IC50 is more than 20 µM in the data set on RAW264.7 [1]; 76.6 µM in the data set on NCI-H1975 [3]; more than 20 µM in the data set with RAW264.7 [2]; more than 20 µM in the data set on Jurkat [4]; 18.1 µM in the data set with HepG2 [5]; more than 80 µM with PC-9 [6]. This compound yielded an IC50 at Acetylcholinesterase [7] of more than 250 µM. In addition, the inhibition result with Jurkat [11] was “inactive”. On Acetylcholinesterase [12], the inhibition was 37.8%.

As for `CC(=O)O[C@H]1C(=O)[C@@]2(C)[C@H]([C@H](OC(=O)c3ccccc3)[C@]3(O)C[C@H](OC(=O)[C@H](O)[C@@H](NC(=O)c4ccccc4)c4ccccc4)C(C)=C1C3(C)C)[C@]1(OC(C)=O)CO[C@@H]1C[C@@H]2O` [PACLITAXEL], the IC50 in the data set on NCI-H1975 [3] turned out to be 3.9 µM; in the data set on HepG2 [5], 10.3 µM; in the data set with PC-9 [6] it was 3.7 µM.
